Source: US8759300B2, “Polypeptides and methods of use” (The Research Foundation for the State University of New York, priority 2007, dated 2014)
Entries after “also recorded” stand apart in the source; their conditions may differ. No end group written: not given here.

Columns and labels:
[1] = test system: GFs (TGF-β1, PDGF-BB, VEGF, FGF-2); assay: Binding of growth factors to FN domains, GFs reported together
Experimental: (§1) 20 μl of 50% v/v peptide-agarose beads are incubated with 125I-PDGF in 0.1 ml of binding buffer (DMEM+2% BSA) at room temperature for 2 hours with rotation. Beads are washed 6 times with DMEM. Bound PDGF-BB are released by the addition of 100 μl of 1M NaOH. The radioactivity bound to FN-beads are quantified in a γ-counter. Nonspecific binding are established from ^125I-PDGF binding to nonconjugated beads, then specific binding derived by subtraction of nonspecific binding from total binding. Binding constants (KD) and Bmax are determined from nonlinear regression of specific binding curves using Prism 4 from GraphPad Software, San Diego, Calif. “Scatchard plots” are derived from the KD and Bmax obtained with non linear regression analysis.
(§2) In the Biacore2000 system, binding constants from kinetic data are determined by passing varying concentrations of FN peptides (analytes) over chip surfaces which are coupled with PDGF-BB (ligand), respectively. All kinetic experiments are carried out at 20° C. at a flow rate of 20 μl/min. For mass transport experiments, each analyte is injected at a fixed concentration and run at flow rates ranging from 5 to 75 μl/min. All analytes are injected over PDGF-BB ligand surfaces as well as over a control surface for 120 s, followed by 300 s of dissociation in running buffer. Regeneration of the sensor chip for subsequent injections is accomplished by pulse of 0.1% SDS. Mass transport experiments have detected little difference in response at different flow rates thus validating data from kinetic experiments. Sensorgrams are prepared and globally fitted using nonlinear least-squares analysis and numerical integration of the differential rate equations with the Biacore Bioevaluation software. Each sensogram generated using a control surface is substracted from the corresponding experimental sensorgrams, and the resulting curves are transformed to concentration units using the molecular mass of the injected species, the equivalence of 1000 resonance units (RU) per 1 ng/mm^2, and a matrix thickness of 100 nm. Each data set, which consists of a series of sensorgrams from injections of different concentration of analyte over the same surface, are analyzed using kinetic models from Biaevaluation software.

[2] = molecular target: T1, PDGF-BB (Homo sapiens, UniProt P01127); assay: Equilibrium binding of 125I-PDGF-BB to FN, FN domains and peptides; details: for PDGF-BB binding, in words: equilibrium binding and/or plasmon resonance; for Kd: equilibrium binding
Experimental: as §1

[3] = molecular target: EGF (Homo sapiens, UniProt P01133); assay: Binding of EGF to FN, FN domains and peptides
[4] = molecular target: TGF-α (Homo sapiens, UniProt P01135); assay: Binding of TGF-α to FN, FN domains and peptides
[5] = molecular target: bFGF (FGF-2) (Homo sapiens, UniProt P09038); assay: Equilibrium binding of bFGF (FGF-2) to FN and FN domains
Experimental: [The source words this procedure for another target and reports this target under the same test.] as §1

[6] = test system: FN-null cells; assay: FN-null cell survival on surfaces coated with FN domains; type: cell-based, mouse; details: for FN-null cell survival / proliferation: FNIII8-11 ± named FN domain, or named FN construct, PDGF-BB added 2 hrs after plating; for FN-null cell survival / proliferation, summary statement: cells plated on named FN construct, or on FNIII8-11 ± named domain; for FN-null cell survival with PDGF at 3 days: surface precoated with 0.15 μM GST-tagged FNIII8-11 ± named FN domain, or named FN construct, PDGF-BB added 1 day after plating
Experimental: To further investigate the response of cells to PDGF-BB bound to FN domains, we investigated the survival response of mouse fibroblasts null for FN (FN−/−), or “FN-null”. First we determined the response of FN-null cells to PDGF-BB in the absence of serum or other sources of exogenous FN. […] Next, FN-null cells were plated on tissue culture plastic surfaces precoated with 0.15 μM GST-tagged FNIII8-11±other FN domains known to have PDGF-BB binding activity and then PDGF-BB added 1 day later. […] Importantly, differential response of FN-null cells, plated on different FN domains, to PDGF-BB was not secondary to differences in attachment as judged by cell counts two hours after plating. The FNIII8-11 central cell binding domain was present in all circumstances.

[7] = molecular target: FGF-1 (Homo sapiens, UniProt P05230); assay: Binding of FGF-1 to FN, FN domains and peptides
[8] = molecular target: TGF-β1 (Homo sapiens, UniProt P01137); assay: Equilibrium binding of TGF-β1 to FN, FN domains and peptides; details: for TGF-β1 binding, in words: equilibrium and/or kinetic binding
Experimental: [The source words this procedure for another target and reports this target under the same test.] as §1

[9] = molecular target: T2, VEGF (Homo sapiens, UniProt P15692); assay: Surface plasmon resonance, VEGF; type: binding
T2 sequence (P15692 27-191 isoform P15692-4): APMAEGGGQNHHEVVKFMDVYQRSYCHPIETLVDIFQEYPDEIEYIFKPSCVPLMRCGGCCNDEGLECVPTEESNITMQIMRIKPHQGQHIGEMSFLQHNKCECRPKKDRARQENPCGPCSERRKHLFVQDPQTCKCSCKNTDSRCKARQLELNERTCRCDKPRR

[10] = molecular target: T3, bFGF binding to recombinant FN domain (Homo sapiens, UniProt P09038); assay: Inhibition by peptide of bFGF binding to recombinant FN domains
T3 construct: made in house; host or cells: E. coli BL21DE3LysS (FN domains only)

[11] = molecular target: T4, TGF-β1 binding to recombinant FN domain (Homo sapiens, UniProt P01137); assay: Inhibition by peptide of TGF-β1 binding to recombinant FN domains
T4 construct: made in house; host or cells: E. coli BL21DE3LysS (FN domains only)

[12] = molecular target: T5, PDGF-BB binding to FNIII1, FNIII12-14 and IIICS (Homo sapiens, UniProt P01127); assay: Inhibition by peptides of PDGF-BB binding to FN domains; details: all three FN domains
T5 construct: made in house; host or cells: E. coli BL21DE3LysS (FN domains only)
Text: To further localize PDGF-BB binding within FNIIII, we acquired a peptide from the central 76 amino acids (aa) of FNIII1 (FN630-704) (FIG. 4), which has anti-angiogenic properties and promotes FN polymerization. […] Next, we looked for sequence homologies within the two halves of the peptide and discovered the sequence pattern noted above ([QN]-X(1,2)-[ST]-X(0,1)-[IG]-[QS]-[KRQ]-[YTM]-[IG]-X(4,5)-X(0,1)-[KR]-X(1,2)-X(1,2)-[RT]-X(1,2)-[KQTS]-X(2)-T) (SEQ ID NO:30) (see peptides 1-4). […] These findings may explain similar PDGF-BB binding among FN heparin-binding domains, FNIII12-V15, FNIII12-15, FNIII12-14, FNIII12-13, and IIICS. […] Next, we determined if PDGF-BB-binding peptides from FNIII1 could inhibit PDGF-BB binding to FNIII1, FNIII12-14 and IIICS. For initial experiments we selected peptide 1 and peptide 2. For control, we used scrambled peptide 1.

[13] = test system: FN-null cells; assay: FN-null cell assay, peptides added directly to medium on FNIII8-11; type: cell-based, mouse
Experimental: FIG. 6. FN-null fibroblast response to soluble, unconjugated P5 (SEQ ID NO:37). FN-null cells were cultured at 4,000 cells/well in 96 well plates precoated with 0.125 mM of FNIII8-11 in DMEM for 4 hrs, and then further incubated in DMEM+2% BSA with or without the indicated concentrations of Peptide 5 at 37° C. for 3 days. Cells were counted in three 10× fields in each of 4 wells (mean±SD, n−12).
Scrambled variants of peptides 1 and 5 had no activity in these assays.
Variants of peptide 5 derived from fibronectin were generated by removing one amino acid at a time from the N-terminus or C-terminus of Peptide 5 (Table 2). These peptides (P12-P24) were added directly to medium with or without PDGF-BB.

[14] = molecular target: T1, PDGF-BB; assay: Surface plasmon resonance (Biacore), PDGF-BB; type: binding; details: plasmon resonance, kinetic binding
Experimental: as §2, with “Each sensogram generated using a control surface is substracted from the corresponding experimental sensorgrams, and the resulting curves are transformed to concentration units using the molecular mass of the injected species, the equivalence of 1000 resonance units (RU) per 1 ng/mm^2, and a matrix thickness of 100 nm.” left out

[15] = peptide added directly to media with or without PDGF-BB

T1 sequence (P01127 82-190 limits assumed): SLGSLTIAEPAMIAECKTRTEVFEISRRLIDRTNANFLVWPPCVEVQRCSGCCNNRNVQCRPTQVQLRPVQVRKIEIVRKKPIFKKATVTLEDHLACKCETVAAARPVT
Chain of TGF-β1 (P01137 279-390 limits assumed): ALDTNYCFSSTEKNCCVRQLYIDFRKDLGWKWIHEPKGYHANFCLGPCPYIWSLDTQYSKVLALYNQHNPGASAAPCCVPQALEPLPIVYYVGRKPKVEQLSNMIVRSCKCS
T5 sequence (P01127 82-190 limits assumed): as the sequence (P01127 82-190 limits assumed) above
Chain of bFGF (FGF-2) (P09038 143-288): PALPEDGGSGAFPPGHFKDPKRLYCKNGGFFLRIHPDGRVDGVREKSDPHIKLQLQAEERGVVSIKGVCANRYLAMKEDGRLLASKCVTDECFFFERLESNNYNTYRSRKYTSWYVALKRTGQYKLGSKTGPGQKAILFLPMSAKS
T3 sequence (P09038 134-288 limits assumed): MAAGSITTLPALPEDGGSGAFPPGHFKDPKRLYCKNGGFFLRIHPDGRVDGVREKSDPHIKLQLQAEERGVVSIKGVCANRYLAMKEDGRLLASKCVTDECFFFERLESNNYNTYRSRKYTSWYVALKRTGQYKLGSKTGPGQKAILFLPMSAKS
Chain of FGF-1 (P05230 whole entry, species assumed, the tested form may be a part): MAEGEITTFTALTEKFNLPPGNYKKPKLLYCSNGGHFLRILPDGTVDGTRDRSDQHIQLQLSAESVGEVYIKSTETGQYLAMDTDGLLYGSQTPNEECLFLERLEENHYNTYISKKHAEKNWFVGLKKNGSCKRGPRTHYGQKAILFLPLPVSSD
Chain of TGF-α (P01135 40-89, species assumed): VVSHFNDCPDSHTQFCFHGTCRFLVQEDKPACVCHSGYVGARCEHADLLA
T4 sequence (P01137 279-390 limits assumed): as the sequence (P01137 279-390 limits assumed) above
Chain of EGF (P01133 971-1023 limits assumed, species assumed): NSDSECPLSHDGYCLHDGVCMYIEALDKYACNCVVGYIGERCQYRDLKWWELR

Substance: anastellin: 76-aa peptide within FNIII1; anti-angiogenic, promotes FN polymerization [reference compound]
- Binding of the GFs tested, in words [1]: all but VEGF bound
- PDGF-BB binding, in words [2]: demonstrated PDGF-BB binding

Substance: FN630-667: half of the 76 aa FNIII1 peptide FN630-704
- PDGF-BB binding, in words [2]: demonstrated PDGF-BB binding

Substance: intact FN: intact human plasma fibronectin (SEQ ID NO:1)
- EGF binding, in words [3]: did not
- TGF-α binding, in words [4]: did not
- Kd ([5]; equilibrium binding, intact FN, read-out: KD, FGF-2 (bFGF) binding): 44 nM
- FN-null cell survival / proliferation [6]: robust proliferation
- FN-null cell survival / proliferation, summary statement [6]: survived in the absence of PDGF-BB and proliferated in its presence
- FGF-1 binding, in words [7]: did not
- Kd ([8]; equilibrium binding): 53 nM
- Kd [2]: 49 nM

Substance: FN70: 70 kDa amino terminus of FN, which includes fibrin and gelatin binding domains
- Binding of the GFs tested, in words [1]: None of the GFs detectably bound; also recorded: In no case did any GF bind
- PDGF-BB binding, in words [2]: did not

Substance: QPSVGQQMIFEEHGFRRTTPPTTAT [peptide 4]
- Kd ([8]; equilibrium binding): 100 nM

Substance: FNIII1-11: recombinant FN domain; FNIII1 PDGF-binding domain contiguous with FNIII8-11 cell-binding domain
- bFGF (FGF-2) binding, in words ([5]; equilibrium and/or kinetic binding): did not
- FN-null cell survival in the absence of PDGF-BB [6]: survived
- FN-null cell survival / proliferation [6]: robust proliferation
- FN-null cell survival / proliferation, summary statement [6]: survived in the absence of PDGF-BB and proliferated in its presence
- FN-null cell survival with PDGF at 3 days [6]: best survival response
- VEGF binding, in words [9]: did not
- TGF-β1 binding, in words [8]: bound
- PDGF-BB binding, in words [2]: bound

Substance: QPSHISKYILRWRPKNSVGRWKEAT [peptide 1]
- Inhibition of bFGF binding to any recombinant FN domain [10]: completely inhibited
- Inhibition of TGF-β1 binding to any recombinant FN domain [11]: completely inhibited
- Inhibition of PDGF-BB binding to FNIII1, FNIII12-14 and IIICS [12]: marked inhibition
- FN null cell survival and proliferation [13, 15]: supported FN null cell survival and proliferation

Substance: FN668-704: half of the 76 aa FNIII1 peptide FN630-704
- PDGF-BB binding, in words [2]: demonstrated PDGF-BB binding

Substance: FNIII8-V15: FN functional domain containing FNIII8-11 plus a GF-binding domain
- FN-null cell survival / proliferation [6]: robust proliferation
- FN-null cell survival / proliferation, summary statement [6]: survived in the absence of PDGF-BB and proliferated in its presence

Substance: FNIII1: recombinant FN domain, first type III repeat
- Kd [14]: 370 nM
- FN-null cell survival with PDGF at 3 days [6]: increased survival
- Binding of the GFs tested, in words [1]: all four GFs bound
- Kd ([8]; method not restated (equilibrium and kinetic binding performed)): 6.2 nM
- Kd [2]: 32 nM

Substance: PSHISKYILRWRPK [P12]
- FN null cell survival and proliferation [13, 15]: smallest peptide capable of supporting FN-null cell survival or proliferation

Substance: FNIII2: recombinant FN domain, second type III repeat
- Binding of the GFs tested, in words [1]: all four GFs bound

Substance: FNIII1-2: recombinant FN domain, first and second type III repeat
- Kd [14]: 9.1 nM
- FN-null cell survival / proliferation [6]: enhance survival
- Binding of the GFs tested, in words [1]: all four GFs bound
- Kd [2]: 37 nM

Substance: FNIII8-11: classic cell-binding domain of FN containing RGD
- FN-null cell survival / proliferation, summary statement [6]: failed to survive even in the presence of PDGF-BB; also recorded: did not support cell survival
- FN-null cell survival with PDGF at 3 days [6]: failed to survive
- Binding of the GFs tested, in words [1]: None of the GFs detectably bound; also recorded: In no case did any GF bind
- PDGF-BB binding, in words [2]: did not

Substance: QLISIQQYGHQEVTRFDFTTTSTST [peptide 2]
- Inhibition of PDGF-BB binding to FNIII1, FNIII12-14 and IIICS [12]: neither peptide 2, nor the scramble variant of peptide 1 (FN634-658s), demonstrated inhibition

Substance: QPSHISKY
- TGF-β1 binding, in words [8]: minimal binding activity

Substance: PSLAKKQRFRHRNR
- FN null cell survival and proliferation ([13]; in the presence of PDGF-BB): supported FN null cell survival and proliferation
